The values that follow come from patent US10899733B2, “Inhibitors of PARPs that catalyze mono-ADP-ribosylation” (OREGON HEALTH & SCIENCE UNIVERSITY, priority 2017, dated 2021).

One experiment deals with PARP6S (Homo sapiens, UniProt Q2NL67). Nature of the experiment: PARP panel: ADP-ribosylation of SRPK2 using 6-a-NAD+. Type of experiment: biochemical.
Another experiment addresses T1, PARP10 (Homo sapiens, UniProt Q53GL7).
T1 construct: Human embryonic kidney (HEK) 293T cells expressing full-length PARP10; expressed in transfected cells; host or cells: HEK293T
T1 sequence (Q53GL7 1-1025): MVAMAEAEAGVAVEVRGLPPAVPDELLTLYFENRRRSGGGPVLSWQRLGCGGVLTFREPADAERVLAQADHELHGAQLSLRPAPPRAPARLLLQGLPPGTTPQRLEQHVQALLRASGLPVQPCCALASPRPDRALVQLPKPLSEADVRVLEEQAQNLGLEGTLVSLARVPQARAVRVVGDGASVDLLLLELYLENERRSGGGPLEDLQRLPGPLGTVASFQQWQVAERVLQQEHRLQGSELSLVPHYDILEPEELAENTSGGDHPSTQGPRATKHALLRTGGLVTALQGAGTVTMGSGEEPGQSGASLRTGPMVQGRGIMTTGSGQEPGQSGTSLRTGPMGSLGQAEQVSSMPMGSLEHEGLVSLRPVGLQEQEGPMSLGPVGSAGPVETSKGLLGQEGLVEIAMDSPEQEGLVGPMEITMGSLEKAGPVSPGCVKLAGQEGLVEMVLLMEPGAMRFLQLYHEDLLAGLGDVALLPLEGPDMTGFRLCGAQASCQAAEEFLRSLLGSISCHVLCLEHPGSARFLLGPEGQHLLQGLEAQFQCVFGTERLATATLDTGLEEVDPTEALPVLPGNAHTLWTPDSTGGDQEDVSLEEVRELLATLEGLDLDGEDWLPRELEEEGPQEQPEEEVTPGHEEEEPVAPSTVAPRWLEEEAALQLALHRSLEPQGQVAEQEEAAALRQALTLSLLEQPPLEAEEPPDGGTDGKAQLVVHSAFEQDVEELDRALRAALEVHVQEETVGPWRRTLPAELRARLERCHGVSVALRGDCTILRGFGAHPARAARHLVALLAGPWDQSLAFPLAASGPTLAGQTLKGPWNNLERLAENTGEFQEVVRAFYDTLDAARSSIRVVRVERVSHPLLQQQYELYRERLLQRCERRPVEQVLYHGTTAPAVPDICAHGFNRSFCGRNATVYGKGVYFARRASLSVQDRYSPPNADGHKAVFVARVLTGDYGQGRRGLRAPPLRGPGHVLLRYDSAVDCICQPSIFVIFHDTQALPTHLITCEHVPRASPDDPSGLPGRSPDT
Nature of the experiment: PARP10-dependent ADP-ribosylation in HEK293T cells expressing GFP-PARP10, Western blot with ADP-ribose binding reagent. The class given is cell-based. Particulars: for pEC50: GFP-PARP10, 22 at 1-100 μM for 3 h. Here is the method: We next determined if 22 could inhibit PARP10-dependent ADP-ribosylation in cells. […] Med. Chem. Lett. 25, pp. 4770-4773} Human embryonic kidney (HEK) 293T cells expressing full-length PARP10 were treated with increasing concentrations of 22 (1-100 μM). […] The EC50 value varies depending on the species quantified.
HEK293T cells were transfected with GFP-PARP10 and incubated with increasing concentrations of 22 (1-100 μM) for 3 h. Lysates were prepared and auto-ADP-ribosylation of PARP10 and its high molecular weight (HMW) targets were analyzed with an ADP-ribose binding reagent (α-APDr) (FIG. 2B) Quantification of data shown in FIG. 2(a).

Another experiment addresses T2, PARP12 (Homo sapiens, UniProt Q9H0J9).
T2 sequence (Q9H0J9 1-701): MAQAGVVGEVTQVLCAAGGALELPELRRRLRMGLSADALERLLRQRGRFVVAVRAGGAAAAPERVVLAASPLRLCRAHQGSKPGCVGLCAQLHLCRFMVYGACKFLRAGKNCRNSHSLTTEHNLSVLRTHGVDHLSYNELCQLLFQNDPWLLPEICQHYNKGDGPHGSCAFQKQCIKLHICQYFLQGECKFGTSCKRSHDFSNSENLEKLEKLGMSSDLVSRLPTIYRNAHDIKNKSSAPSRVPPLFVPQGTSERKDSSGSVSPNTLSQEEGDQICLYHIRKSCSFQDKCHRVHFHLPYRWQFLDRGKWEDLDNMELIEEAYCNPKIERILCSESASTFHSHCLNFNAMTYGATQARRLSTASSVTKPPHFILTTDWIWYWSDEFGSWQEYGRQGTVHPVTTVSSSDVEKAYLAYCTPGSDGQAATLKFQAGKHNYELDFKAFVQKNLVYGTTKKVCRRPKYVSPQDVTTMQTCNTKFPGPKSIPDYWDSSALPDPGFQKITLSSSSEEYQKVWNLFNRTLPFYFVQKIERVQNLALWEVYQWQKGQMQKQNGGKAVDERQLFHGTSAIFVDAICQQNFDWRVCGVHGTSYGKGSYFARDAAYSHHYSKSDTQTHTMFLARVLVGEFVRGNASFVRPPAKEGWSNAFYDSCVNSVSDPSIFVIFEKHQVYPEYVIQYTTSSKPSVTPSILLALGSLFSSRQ
Kind of experiment: PARP panel: ADP-ribosylation of SRPK2 using 6-a-NAD+. The class given is biochemical.

The next experiment addresses T3, PARP10cat (Homo sapiens, UniProt Q53GL7).
T3 sequence (Q53GL7 806-1025 limits assumed): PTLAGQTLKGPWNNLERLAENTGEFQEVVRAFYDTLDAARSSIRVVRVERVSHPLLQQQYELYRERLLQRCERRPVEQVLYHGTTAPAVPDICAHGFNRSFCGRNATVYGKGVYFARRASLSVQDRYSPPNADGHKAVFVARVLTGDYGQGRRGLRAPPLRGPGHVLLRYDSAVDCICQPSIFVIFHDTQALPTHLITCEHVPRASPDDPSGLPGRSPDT
Kind of experiment: Inhibition of PARP10cat-mediated ADP-ribosylation of SRPK2 using NAD+ (100 μM). Type of experiment: biochemical.

pEC50, pIC50: −log10 of the molar value. Where two headings read alike, the source gives them in different places.

Chain of PARP6S (Q2NL67 1-518 isoform Q2NL67-2): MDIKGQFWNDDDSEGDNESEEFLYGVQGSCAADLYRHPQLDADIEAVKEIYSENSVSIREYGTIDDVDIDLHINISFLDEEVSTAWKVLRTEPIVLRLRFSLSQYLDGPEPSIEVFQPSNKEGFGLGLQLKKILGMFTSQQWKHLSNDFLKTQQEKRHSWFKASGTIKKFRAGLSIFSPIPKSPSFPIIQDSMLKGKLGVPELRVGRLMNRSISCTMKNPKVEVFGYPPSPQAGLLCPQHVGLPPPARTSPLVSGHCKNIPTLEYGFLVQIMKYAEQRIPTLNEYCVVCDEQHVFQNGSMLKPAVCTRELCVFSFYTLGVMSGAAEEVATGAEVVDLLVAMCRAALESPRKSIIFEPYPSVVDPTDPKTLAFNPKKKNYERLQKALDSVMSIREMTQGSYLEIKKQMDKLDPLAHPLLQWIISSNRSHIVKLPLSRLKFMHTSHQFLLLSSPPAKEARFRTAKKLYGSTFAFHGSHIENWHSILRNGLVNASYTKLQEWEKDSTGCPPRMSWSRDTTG

Broadly, the pIC50 is −log10 of the IC50, conventionally taken in molar units. Broadly, the pEC50 is the EC50 on a negative log10 scale, so that one unit is a factor of ten. `Cc1c(-c2ccnc(C(F)(F)F)c2)ccc2c1CCNC2=O` [Compound 22, 5-methyl-6-(2-(trifluoromethyl)pyridin-4-yl)-3,4-dihydroisoquinolin-1(2H)-one]: the pIC50 against PARP6S (6-a-NAD+) and at PARP12 (6-a-NAD+) was less than 4.52 each time. For the same molecule, the PARP/PARP10 on PARP6S (PARP6S over PARP10cat) and on PARP12 (PARP12 over PARP10cat) was greater than 10 throughout. The “inhibition of auto-ADP-ribosylation of PARP10 and PARP10-labeled targets in cells” value on PARP10 (1-100 μM) is given as “dose-dependent manner”. The pEC50 was 4.96 on PARP10 (read-out: EC50, PARP10 itself (auto-ADP-ribosylation)) and 5.64 on PARP10 (read-out: EC50, PARP10 targets (HMW species)). At PARP10cat, the “selectivity for PARP10 over PARP11” value is 29 fold. In addition, the “improvement in selectivity for PARP10 over PARP11 compared to parent compound” value at PARP10cat (12 vs 8, 14 vs 3, 20, 22 vs 16, 23, 24 vs 15) is listed as roughly 2 fold. In addition, the “PARP10cat pIC50 ± S.E.M.” value on PARP10cat (ADP-ribosylation of SRPK2, NAD+ 100 μM) came out at 5.74 ± 0.02. The PARP11/PARP10 on PARP10cat (ratio of IC50 values, PARP11 over PARP10cat) amounted to 29.
